Test results from publication PMC12320284, “Biochemical and biological evaluation of L-glutaminase from Aspergillus tamarii AUMC 10198 via solid-state fermentation” (Microbial Cell Factories, 2025).

System: T1, L-glutaminase (Aspergillus tamarii AUMC 10198)
T1 construct: gene gtaA; approx. 62 kDa by SDS-PAGE, single band
Test: Nesslerization ammonia assay, […] nm; Lineweaver-Burk plot
Format: biochemical
Settings: standard assay conditions (0.1 M citrate-phosphate pH 7, 30 °C, 30 min as described for the crude enzyme); 0.2-2.0 mg/ml L-glutamine; apparent Km

Km: 0.28 mg/mL
SMILES: NC(=O)CC[C@H](N)C(=O)O [L-glutamine]
